Results from patent publication US12077503B2, “Substituted cyclic amides and their use as herbicides” (FMC CORPORATION, priority 2015, dated 2024).
Where two headings read alike, the source gives them in different places.

Columns and labels:
Type in all cases: in vivo
[1] = system: giant foxtail (Setaria faberii); test: Test A preemergence; conditions: Setaria faberi, pre-emergence, 240 h, preemergence, 0 to 100 scale where 0 is no effect and 100 is complete control, read-out: Foxtail, Giant plant response rating; for pest or weed control at 125 g/ha: 125 g ai/ha, approx. 10 d; for pest or weed control at 500 g/ha: 500 g ai/ha
Procedure, shortened: (§1)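 Preemergence soil spray on seeded pots or post-emergence spray on 1–2 leaf plants, in loam–sand blend. Greenhouse ~10 d. Visual rating 0–100 against untreated plants.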

[2] = system: barnyardgrass (Echinochloa crus-galli); test: Test B flooded paddy test; conditions: Echinochloa crus-galli, 250 g ai/ha, Flood; 0 to 100 scale where 0 is no effect and 100 is complete control; read-out: Barnyardgrass plant response rating
Procedure, shortened: (§2)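 Compound goes directly into floodwater once pots are flooded 3 cm above soil, targeting plants at two leaves; the water depth is then held for the test duration. Plants sit 13–15 d in a greenhouse and are rated visually, 100 denoting complete control.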

[3] = system: sedge, umbrella (small-flower umbrella sedge, Cyperus difformis); test: Test B flooded paddy test; conditions: Cyperus difformis, 250 g ai/ha, Flood; 0 to 100 scale where 0 is no effect and 100 is complete control; read-out: Sedge, Umbrella plant response rating
Procedure, shortened: as §2

rice (Oryra sativa) = test: Test B flooded paddy test; conditions: Oryza sativa, 250 g ai/ha, Flood; 0 to 100 scale where 0 is no effect and 100 is complete control; read-out: Rice plant response rating
Procedure, shortened: as §2

[4] = system: ducksalad (Heteranthera limosa); test: Test B flooded paddy test; conditions: Heteranthera limosa, 250 g ai/ha, Flood; 0 to 100 scale where 0 is no effect and 100 is complete control; read-out: Ducksalad plant response rating
Procedure, shortened: as §2

[5] = system: blackgrass (Alopecurus myosuroides); test: Test A postemergence; conditions: Alopecurus myosuroides, post-emergence, 240 h, postemergence; for pest or weed control at 125 g/ha: 125 g ai/ha; for pest or weed control at 500 g/ha: 500 g ai/ha, 0 to 100 scale, 0 is no effect, 100 is complete control
Procedure, shortened: as §1

[6] = system: barnyardgrass (Echinochloa crus-galli); test: Test A postemergence; conditions: Echinochloa crus-galli, post-emergence, 240 h, postemergence; for pest or weed control at 125 g/ha: 125 g ai/ha; for pest or weed control at 500 g/ha: 500 g ai/ha, 0 to 100 scale, 0 is no effect, 100 is complete control
Procedure, shortened: as §1

[7] = system: wheat (Triticum aestivum); test: Test A postemergence; conditions: Triticum aestivum, post-emergence, 240 h, postemergence; for plant injury at 125 g/ha: 125 g ai/ha; for plant injury at 500 g/ha: 500 g ai/ha, 0 to 100 scale, 0 is no effect, 100 is complete control
Procedure, shortened: as §1

[8] = system: ryegrass, Italian (Italian ryegrass, Lolium multiflorum); test: Test A postemergence; conditions: Lolium multiflorum, post-emergence, 240 h, postemergence; for pest or weed control at 125 g/ha: 125 g ai/ha; for pest or weed control at 500 g/ha: 500 g ai/ha, 0 to 100 scale, 0 is no effect, 100 is complete control
Procedure, shortened: as §1

[9] = system: Galium (catchweed bedstraw, Galium aparine); test: Test A postemergence; conditions: Galium, post-emergence, 240 h, postemergence; for pest or weed control at 125 g/ha: 125 g ai/ha; for pest or weed control at 500 g/ha: 500 g ai/ha, 0 to 100 scale, 0 is no effect, 100 is complete control
Procedure, shortened: as §1

[10] = system: ragweed (common ragweed, Ambrosia elatior); test: Test A postemergence; conditions: Ambrosia artemisiifolia, post-emergence, 240 h, postemergence; for pest or weed control at 125 g/ha: 125 g ai/ha; for pest or weed control at 500 g/ha: 500 g ai/ha, 0 to 100 scale, 0 is no effect, 100 is complete control
Procedure, shortened: as §1

Kochia (Kochia scoparia) = test: Test A postemergence; conditions: Bassia scoparia, post-emergence, 240 h, postemergence; for pest or weed control at 125 g/ha: 125 g ai/ha; for pest or weed control at 500 g/ha: 500 g ai/ha, 0 to 100 scale, 0 is no effect, 100 is complete control
Procedure, shortened: as §1

[11] = system: giant foxtail (Setaria faberii); test: Test A postemergence; conditions: Setaria faberi, post-emergence, 240 h, postemergence; for pest or weed control at 125 g/ha: 125 g ai/ha; for pest or weed control at 500 g/ha: 500 g ai/ha, 0 to 100 scale, 0 is no effect, 100 is complete control
Procedure, shortened: as §1

corn (Zea mays) = test: Test A postemergence; conditions: Zea mays, post-emergence, 240 h, postemergence; for plant injury at 125 g/ha: 125 g ai/ha; for plant injury at 500 g/ha: 500 g ai/ha, 0 to 100 scale, 0 is no effect, 100 is complete control
Procedure, shortened: as §1

[12] = system: pigweed (Amaranthus retroflexus); test: Test A postemergence; conditions: Amaranthus retroflexus, post-emergence, 240 h, postemergence; for pest or weed control at 125 g/ha: 125 g ai/ha; for pest or weed control at 500 g/ha: 500 g ai/ha, 0 to 100 scale, 0 is no effect, 100 is complete control
Procedure, shortened: as §1

[13] = read-out: Blackgrass plant response rating
[14] = read-out: Barnyardgrass plant response rating
[15] = read-out: Wheat plant response rating
[16] = read-out: Ryegrass, Italian plant response rating
[17] = read-out: Galium plant response rating
[18] = read-out: Ragweed plant response rating
[19] = read-out: Kochia plant response rating
[20] = read-out: Foxtail, Giant plant response rating
[21] = read-out: Corn plant response rating
[22] = read-out: Pigweed plant response rating

SMILES	pest or weed control at 125 g/ha [1] [%]	pest or weed control at 500 g/ha [1] [%]	pest or weed control at 250 g/ha [2] [%]	pest or weed control at 250 g/ha [3] [%]	pest or weed control at 250 g/ha (rice (Oryra sativa)) [%]	pest or weed control at 250 g/ha [4] [%]	pest or weed control at 500 g/ha [5, 13] [%]	pest or weed control at 500 g/ha [6, 14] [%]	plant injury at 500 g/ha [7, 15] [%]	pest or weed control at 500 g/ha [8, 16] [%]	pest or weed control at 500 g/ha [9, 17] [%]	pest or weed control at 500 g/ha [10, 18] [%]	pest or weed control at 500 g/ha (Kochia (Kochia scoparia); [19]) [%]	pest or weed control at 500 g/ha [11, 20] [%]	plant injury at 500 g/ha (corn (Zea mays); [21]) [%]	pest or weed control at 500 g/ha [12, 22] [%]	further results
CN1C[C@H](c2csc(C(F)F)c2)[C@@H](C(=O)Nc2cccc(F)c2F)C1=O [Compound 1122]	90	90	70	30	25	100	60	90	70	60	60	50	60	90	90	40	pest or weed control at 125 g/ha ([5]; visual injury on 0 to 100 scale (0 no effect, 100 complete control), approx. 10 d, read-out: Blackgrass plant response rating): 40%; pest or weed control at 125 g/ha ([6]; visual injury on 0 to 100 scale (0 no effect, 100 complete control), approx. 10 d, read-out: Barnyardgrass plant response rating): 90%; plant injury at 125 g/ha ([7]; visual injury on 0 to 100 scale (0 no effect, 100 complete control), approx. 10 d, read-out: Wheat plant response rating): 50%; pest or weed control at 125 g/ha ([8]; visual injury on 0 to 100 scale (0 no effect, 100 complete control), approx. 10 d, read-out: Ryegrass, Italian plant response rating): 30%; pest or weed control at 125 g/ha ([9]; visual injury on 0 to 100 scale (0 no effect, 100 complete control), approx. 10 d, read-out: Galium plant response rating): 50%; pest or weed control at 125 g/ha ([10]; visual injury on 0 to 100 scale (0 no effect, 100 complete control), approx. 10 d, read-out: Ragweed plant response rating): 50%; pest or weed control at 125 g/ha (Kochia (Kochia scoparia); visual injury on 0 to 100 scale (0 no effect, 100 complete control), approx. 10 d, read-out: Kochia plant response rating): 60%; pest or weed control at 125 g/ha ([11]; visual injury on 0 to 100 scale (0 no effect, 100 complete control), approx. 10 d, read-out: Foxtail, Giant plant response rating): 80%; plant injury at 125 g/ha (corn (Zea mays); visual injury on 0 to 100 scale (0 no effect, 100 complete control), approx. 10 d, read-out: Corn plant response rating): 50%; pest or weed control at 125 g/ha ([12]; visual injury on 0 to 100 scale (0 no effect, 100 complete control), approx. 10 d, read-out: Pigweed plant response rating): 20%
CCc1ccc([C@H]2CNC(=O)[C@@H]2C(=O)Nc2ccccc2SC)cc1 [Compound 1178]	20	70	20	0	20	90	20	30	0	0	30	20	40	30	0	0	pest or weed control at 125 g/ha ([5]; visual injury vs untreated controls after approx. 10 d, 0 = no effect, 100 = complete control, read-out: Blackgrass plant response rating (0 to 100 scale)): 0%; pest or weed control at 125 g/ha ([6]; visual injury vs untreated controls after approx. 10 d, 0 = no effect, 100 = complete control, read-out: Barnyardgrass plant response rating (0 to 100 scale)): 0%; plant injury at 125 g/ha ([7]; visual injury vs untreated controls after approx. 10 d, 0 = no effect, 100 = complete control, read-out: Wheat plant response rating (0 to 100 scale)): 0%; pest or weed control at 125 g/ha ([8]; visual injury vs untreated controls after approx. 10 d, 0 = no effect, 100 = complete control, read-out: Ryegrass, Italian plant response rating (0 to 100 scale)): 0%; pest or weed control at 125 g/ha ([9]; visual injury vs untreated controls after approx. 10 d, 0 = no effect, 100 = complete control, read-out: Galium plant response rating (0 to 100 scale)): 30%; pest or weed control at 125 g/ha ([10]; visual injury vs untreated controls after approx. 10 d, 0 = no effect, 100 = complete control, read-out: Ragweed plant response rating (0 to 100 scale)): 0%; pest or weed control at 125 g/ha (Kochia (Kochia scoparia); visual injury vs untreated controls after approx. 10 d, 0 = no effect, 100 = complete control, read-out: Kochia plant response rating (0 to 100 scale)): 20%; pest or weed control at 125 g/ha ([11]; visual injury vs untreated controls after approx. 10 d, 0 = no effect, 100 = complete control, read-out: Foxtail, Giant plant response rating (0 to 100 scale)): 0%; plant injury at 125 g/ha (corn (Zea mays); visual injury vs untreated controls after approx. 10 d, 0 = no effect, 100 = complete control, read-out: Corn plant response rating (0 to 100 scale)): 0%; pest or weed control at 125 g/ha ([12]; visual injury vs untreated controls after approx. 10 d, 0 = no effect, 100 = complete control, read-out: Pigweed plant response rating (0 to 100 scale)): 0%
